For one data set, the system named is RCC4. As to the kind of experiment: XTT cell viability assay in RCC4 cells (VHL-deficient renal carcinoma). The format is cell-based. The conditions noted are these: four days drug exposure. As to the method: (§1) Cell Culture. RCC4 parental and RCC4 with VHL-reintroduced (RCC4/VHL), SN12C and SN12C-CSCG-VHL shRNA were maintained in DMEM supplemented with 10% FCS.
(§2) Cell Viability Assays. For 2,3-bis[2-methoxy-4-nitro-5-sulfophenyl]-2H-tetrazolium-5-carboxanilide (XTT) assays, five thousand cells were plated in 96-well plates. The next day, vehicle (DMSO) or drug was added by serial dilution. Four days later, media were aspirated, XTT solution (0.3 mg/ml of XTT (Sigma), […] N-methyl dibenxopyrazine methyl sulfate (Simga) in phenol red-free media) was added, and the plates were incubated at 37° C. for 1-2 hours. Metabolism of XTT was quantified by measuring the absorbance at 450 nm IC50s were calculated using linear interpolation. For clonogenic survival assays, three hundred cells were plated per 60 mm tissue culture dish. The cells were allowed to attach overnight and then treated with vehicle or drug for 14 days. Colonies were fixed and stained with crystal violet (0.1% crystal violet in 95% ethanol). All conditions were measured in triplicate and each experiment was done in duplicate or triplicate. To determine necrosis, cells were treated with drug for a given time point. Media and cells were collected, centrifugated, and resuspended in 0.4% trypan blue (Invitrogen). Live and dead cells were counted on a hematocytometer.
(§3) The designation A reflects an IC50 of <1 nM; B reflects an IC50 ranging from 1 to 20 nM; and C is an IC50 of >20 nM. The designation “a” reflects a ratio of RCC4/RCC-VHL+ranging from 1 to ≦10; “b” reflects from 10 to ≦100; “c” reflects a ratio of >100. Compounds I-29 have an IC50 value of ≦10 μM when tested in the above assay.

Data set [1] deals with RCC4 with VHL-reintroduced (RCC4/VHL). As to the kind of experiment: XTT cell viability assay in RCC4/VHL cells, selectivity ratio versus RCC4. The format is cell-based. The note with it: Ratio = IC50RCC4/VHL/IC50RCC4. As to the method:
as §1, §2, §3
In general terms: Tetrazolium dyes change colour on reduction, which living cells bring about.

The molecule `Cc1oc(-c2ccc(C(=O)NCc3cccnc3)cc2)nc1CS(=O)(=O)C1CCNCC1` [Example 39, 4-(5-Methyl-4-((piperidin-4-ylsulfonyl)methyl)oxazol-2-yl)-N-(pyridin-3-ylmethyl)benzamide] showed an IC50 in the data set on RCC4 (Homo sapiens, 96 h) greater than 20 nM. For the same molecule, the “Ratio (IC50 RCC4 Proficient VHL)/ IC50 RCC4 Deficient VHL)” value in data set [1] is recorded as “b (from 10 to ≦100)”.
For `Cc1oc(-c2ccc(C(=O)NCc3cccnc3)cc2)nc1CS(=O)(=O)C1CCN(C)CC1` [Example 40, 4-(5-Methyl-4-((1-methylpiperidin-4-ylsulfonyl)methyl)oxazol-2-yl)-N-(pyridin-3-ylmethyl)benzamide], in the data set on RCC4 (Homo sapiens, 96 h), the IC50 was less than 1 nM. In addition, the “Ratio (IC50 RCC4 Proficient VHL)/ IC50 RCC4 Deficient VHL)” value in data set [1] is “b (from 10 to ≦100)”.
Molecule `Cc1oc(-c2ccc(C(=O)NCc3cccnc3)cc2)nc1CS(=O)(=O)[C@H]1CC[C@@H](N)CC1` [Example 41, 4-(4-(((1s,4s)-4-aminocyclohexylsulfonyl)methyl)-5-methyloxazol-2-yl)-N-(pyridin-3-ylmethyl)benzamide] returned an IC50 in the data set on RCC4 greater than 20 nM. In addition, the “Ratio (IC50 RCC4 Proficient VHL)/ IC50 RCC4 Deficient VHL)” value in data set [1] is “b (from 10 to ≦100)”.
In the data set on RCC4 (Homo sapiens, 96 h), `Cc1oc(-c2ccc(C(=O)NCc3cccnc3)cc2)nc1CS(=O)(=O)[C@H]1CC[C@@H](N2CCCC2)CC1` [Example 42, 4-[5-methyl-4-([[4-(pyrrolidin-1-yl)cyclohexane]sulfonyl]methyl)-1,3-oxazol-2-yl]-N-(pyridin-3-ylmethyl)benzamide] came in with an IC50 of less than 1 nM. Moreover, the “Ratio (IC50 RCC4 Proficient VHL)/ IC50 RCC4 Deficient VHL)” value in data set [1] is on record as “b (from 10 to ≦100)”.
In the data set with RCC4 (Homo sapiens, 96 h), `Cc1oc(-c2ccc(C(=O)NCc3cccnc3)cc2)nc1CS(=O)(=O)[C@H]1CC[C@@H](N2CCCCC2)CC1` [Example 43, 4-[5-Methyl-4-([[4-(piperidin-1-yl)cyclohexane]sulfonyl]methyl)-1,3-oxazol-2-yl]-N-(pyridin-3-ylmethyl)benzamide] registered an IC50 of less than 1 nM. Moreover, in data set [1], the “Ratio (IC50 RCC4 Proficient VHL)/ IC50 RCC4 Deficient VHL)” value is “b (from 10 to ≦100)”.
On the same counts, the results for `Cc1oc(-c2ccc(C(=O)NCc3cccnc3)cc2)nc1CS(=O)(=O)[C@H]1CC[C@H](N)CC1` [Example 44, 4-(4-[[(4-Aminocyclohexane)sulfonyl]methyl]-5-methyl-1,3-oxazol-2-yl)-N-(pyridin-3-ylmethyl)benzamide] are greater than 20 nM and “b (from 10 to ≦100)”.
On the same counts, the results for `Cc1oc(-c2ccc(C(=O)NCc3cccnc3)cc2)nc1CS(=O)(=O)[C@H]1CC[C@H](N2CCCC2)CC1` [Example 45, 4-[5-Methyl-4-([[4-(pyrrolidin-1-yl)cyclohexane]sulfonyl]methyl)-1,3-oxazol-2-yl]-N-(pyridin-3-ylmethyl)benzamide] are 1 to 20 nM and “b (from 10 to ≦100)”.
`Cc1oc(-c2ccc(C(=O)NCc3cccnc3)cc2)nc1CS(=O)(=O)[C@H]1CC[C@H](N2CCCCC2)CC1` [Example 46, 4-[5-Methyl-4-([[4-(piperidin-1-yl)cyclohexane]sulfonyl]methyl)-1,3-oxazol-2-yl]-N-(pyridin-3-ylmethyl)benzamide] gave an IC50 in the data set on RCC4 (Homo sapiens, 96 h) of less than 1 nM. Moreover, the “Ratio (IC50 RCC4 Proficient VHL)/ IC50 RCC4 Deficient VHL)” value in data set [1] is listed as “b (from 10 to ≦100)”.
Taken in the same sequence, the figures for `Cc1oc(-c2ccc(C(=O)NCc3cccnc3)cc2)nc1CS(=O)(=O)[C@H]1CC[C@H](N)C1` [Example 47, 4-[4-([[(1S,3S)-3-Aminocyclopentane]sulfonyl]methyl)-5-methyl-1,3-oxazol-2-yl]-N-(pyridin-3-ylmethyl)benzamide] were greater than 20 nM and “b (from 10 to ≦100)”.
Taken in the same sequence, the figures for `Cc1oc(-c2ccc(C(=O)NCc3cccnc3)cc2)nc1CS(=O)(=O)[C@H]1CC[C@H](N2CCCC2)C1` [Example 48, 4-[5-Methyl-4-([[(1S,3S)-3-(pyrrolidin-1-yl)cyclopentane]sulfonyl]methyl)-1,3-oxazol-2-yl]-N-(pyridin-3-ylmethyl)benzamide] were less than 1 nM and “b (from 10 to ≦100)”.
Take `Cc1oc(-c2ccc(C(=O)NCc3cccnc3)cc2)nc1CS(=O)(=O)[C@H]1CC[C@H](N2CCCCC2)C1` [Example 49, 4-[5-Methyl-4-([[(1S,3S)-3-(piperidin-1-yl)cyclopentane]sulfonyl]methyl)-1,3-oxazol-2-yl]-N-(pyridin-3-ylmethyl)benzamide]: the IC50 in the data set with RCC4 was less than 1 nM. In addition, the “Ratio (IC50 RCC4 Proficient VHL)/ IC50 RCC4 Deficient VHL)” value in data set [1] is listed as “b (from 10 to ≦100)”.
The molecule `Cc1oc(-c2ccc(C(=O)NCc3cccnc3)cc2)nc1CS(=O)(=O)[C@@H]1CC[C@H](N)C1` [Example 50, 4-[4-([[(1R,3S)-3-Aminocyclopentane]sulfonyl]methyl)-5-methyl-1,3-oxazol-2-yl]-N-(pyridin-3-ylmethyl)benzamide] came in with an IC50 with RCC4 (Homo sapiens, 96 h) greater than 20 nM. For the same molecule, the “Ratio (IC50 RCC4 Proficient VHL)/ IC50 RCC4 Deficient VHL)” value in data set [1] is given as “b (from 10 to ≦100)”.
On the same counts, the results for `Cc1oc(-c2ccc(C(=O)NCc3cccnc3)cc2)nc1CS(=O)(=O)[C@@H]1CC[C@H](N2CCCC2)C1` [Example 51, 4-[5-Methyl-4-([[(1R,3S)-3-(pyrrolidin-1-yl)cyclopentane]sulfonyl]methyl)-1,3-oxazol-2-yl]-N-(pyridin-3-ylmethyl)benzamide] are less than 1 nM and “b (from 10 to ≦100)”.
Taken in the same sequence, the figures for `Cc1oc(-c2ccc(C(=O)NCc3cccnc3)cc2)nc1CS(=O)(=O)[C@@H]1CC[C@H](N2CCCCC2)C1` [Example 52, 4-[5-Methyl-4-([[(1R,3S)-3-(piperidin-1-yl)cyclopentane]sulfonyl]methyl)-1,3-oxazol-2-yl]-N-(pyridin-3-ylmethyl)benzamide] were less than 1 nM and “a (a ratio of RCC4/RCC-VHL+ranging from 1 to ≦10)”.
Taken in the same sequence, the figures for `Cc1oc(-c2ccc(C(=O)NCc3cccnc3)cc2)nc1CS(=O)(=O)C1CCN(CC(C)C)CC1` [Example 53, 4-(5-methyl-4-[[1-(2-methylpropyl)piperidine-4-sulfonyl]methyl]-1,3-oxazol-2-yl)-N-(pyridin-3-ylmethyl)benzamide] were less than 1 nM and “a (a ratio of RCC4/RCC-VHL+ranging from 1 to ≦10)”.
Turning to `Cc1oc(-c2ccc(C(=O)NCc3cccnc3)cc2)nc1CS(=O)(=O)C1CCN(C2CCCC2)CC1` [Example 54, 4-[4-[(1-cyclopentylpiperidine-4-sulfonyl)methyl]-5-methyl-1,3-oxazol-2-yl]-N-(pyridin-3-ylmethyl)benzamide], in the data set with RCC4 (Homo sapiens, 96 h), the IC50 was less than 1 nM. In addition, the “Ratio (IC50 RCC4 Proficient VHL)/ IC50 RCC4 Deficient VHL)” value in data set [1] is given as “b (from 10 to ≦100)”.
In turn, `Cc1oc(-c2ccc(C(=O)NCc3cccnc3)cc2)nc1CS(=O)(=O)C1CCN(C2CCCCC2)CC1` [Example 55, 4-[4-[(1-cyclohexylpiperidine-4-sulfonyl)methyl]-5-methyl-1,3-oxazol-2-yl]-N-(pyridin-3-ylmethyl)benzamide] registered an IC50 in the data set on RCC4 (Homo sapiens, 96 h) of less than 1 nM. For the same molecule, the “Ratio (IC50 RCC4 Proficient VHL)/ IC50 RCC4 Deficient VHL)” value in data set [1] is on record as “a (a ratio of RCC4/RCC-VHL+ranging from 1 to ≦10)”.
In turn, `Cc1ncc(S(=O)(=O)NCc2ccc(C(=O)Nc3cccnc3)cc2)n1C` [II-6, 4-({[(1,2-Dimethyl-1H-imidazol-5-yl)sulfonyl]amino}methyl)-N-(3-pyridinyl)benzamide] registered a melting point of 238 to 240 °C. The same molecule displayed an IC50 in the data set with RCC4 (Homo sapiens, 96 h) greater than 20 nM.
On the same counts, the results for `O=C(Nc1cccnc1)c1ccc(CNS(=O)(=O)c2nnc[nH]2)cc1` [II-7, N-(3-pyridinyl)-4-{[(4H-1,2,4-triazol-3-ylsulfonyl)amino]methyl}benzamide] are 266 to 269 °C and greater than 20 nM.
Take `O=C(Nc1cccnc1)c1ccc(CNS(=O)(=O)c2ccco2)cc1` [II-8, N-(3-Pyridinyl)-4-{[(2-furanylsulfonyl)amino]methyl}benzamide]: the IC50 in the data set on RCC4 (Homo sapiens, 96 h) is greater than 20 nM. Also, the Ratio result in data set [1] was “a (a ratio of RCC4/RCC-VHL+ranging from 1 to ≦10)”.

A word on the IC50: it is the concentration needed to halve the response being measured. Low values mean greater potency in that assay, high ones weaker potency in that assay. Usually melting point stands for the temperature, or range, at which the solid turns liquid.

These data come from patent US9085570B2, “Substituted benzamides and their uses” (The Board of Trustees of the Leland Stanford Junior …, priority 2010, dated 2015).
